Consider one molecule from US8492328B2, “Biomarkers and methods for determining sensitivity to insulin growth factor-1 receptor modulators” (Bristol-Myers Squibb Company, priority 2007, dated 2013).

The subject of one experiment is RD-1 cells. Briefly: In vitro cellular proliferation assay, parental sensitive RD-1. The experiment is classed as cell-based. As to conditions: Homo sapiens, RD1; sensitive parental RD-1 (RMS) cells. As for the experimental part:
(§1) All pediatric sarcoma and neuroblastoma cell lines were obtained from Dr. Lee Helman at NIH. All cell lines were grown in RPMI medium supplemented with Glutamax (Gibco/Invitrogen #61870-036), 10% inactivated fetal bovine serum (Gibco/Invitrogen #16140-071), 10 mM Hepes, penicillin and streptomycin.
(§2) Cells were plated at an optimized density for each cell line per well in 96-well microtiter Falcon plates, incubated overnight, and then exposed to a serial dilution of drug. After 72 hours incubation with drug at 37° C., cells were pulsed with 4 μCi/ml [6-3H] thymidine (Amersham Pharmacia Biotech, UK) for 3 hours, trypsinized, harvested onto UniFilter-96, GF/B plates (PerkinElmer, Boston, Mass.) and scintillation was measured on a TopCount NXT (Packard, Conn.). Results were expressed as an IC50, which is the drug concentration required to inhibit cell proliferation by 50% to that of untreated control cells. The mean IC50 and standard deviation (SD) from multiple tests for each cell line were calculated.
Acquired resistance to anti-cancer agents is a major clinical problem. […] In order to identify markers that may contribute to acquired resistance to the IGF1R inhibitor, global gene expression profiles for both parental RD1 and resistant RD1 were analyzed using Affymetrix gene chip. […]

The test system of another experiment is TC71. The experiment can be described thus: In vitro cellular proliferation assay ([3H]-thymidine incorporation). As to conditions: TC71 (Ewing). The experiment is classed as cell-based, human. As for the experimental part:
as §1, §2

Another experiment relates to SK-LMS-1. The experiment is described as above. As to conditions: SK-LMS-1 (Leiomyosarcoma). The experiment is classed as cell-based, human. As for the experimental part: as §1, §2
The subject of another experiment is SK-NAS. The description is as above. The experiment is classed as cell-based, human. On the procedure: as §1, §2
A further experiment deals with Rh1. The experiment is described as above. The experiment is classed as cell-based, human. As to conditions: Rh1 (Rhabdomyosarcoma). On the procedure: as §1, §2
Another experiment deals with Rh41 cells. The experiment can be described thus: Gene expression profiling of cells with compound 1 treatment. The experiment is classed as cell-based, human.

SMILES strings stand for the structures. pIC50: −log10 of the molar value.

In the case of `Cc1cc(N2CCOCC2)cc2[nH]c(-c3c(NC[C@@H](O)c4cccc(Cl)c4)cc[nH]c3=O)nc12` [Compound 1, (S)-4-(2-(3-chlorophenyl)-2-hydroxyethylamino)-3-(4-methyl-6-morpholino-1H-benzo[d]imidazol-2-yl)-pyridin-2(1-H)-one], the negative-log IC50 (pIC50) is 6.62 in the experiment on RD-1 cells; 6.92 with TC71 (Homo sapiens, TC-71, 72 hours with drug, read-out: IC50); 6.30 with SK-LMS-1 (Homo sapiens, 72 hours with drug, read-out: IC50); 6.72 with SK-NAS (Homo sapiens, SK-N-AS, SK-NAS (Neuroblastoma), 72 hours with drug, read-out: IC50); 6.87 in the experiment with Rh1 (Homo sapiens, RH-1, 72 hours with drug, read-out: IC50). For the same molecule, the “Sensitivity Classification” value is given as “S (“S” means sensitive)” with TC71, “R (“R” means resistant to the corresponding compounds.)” with SK-LMS-1, “S (“S” means sensitive)” with SK-NAS (SK-NAS (Neuroblastoma)) and “S (“S” means sensitive)” with Rh1. In addition, the “sensitivity/resistance classification in words” value with SK-NAS (SK-NAS) is “resistant”. Moreover, in the experiment on Rh41 cells (compound 1 treated cells), the Ki-67 expression entry is listed as “Remarkable but not complete decrease”. In addition, the “expression of programmed cell death 4 (PDCD4)” value in the experiment on Rh41 cells (sensitive Rh41 cells) is “up-regulated”. For the same molecule, the “expression level of survivin” value with Rh41 cells (sensitive Rh41 cells, especially at 36 and 72 hours) is given as “significantly reduced”. The “genes with significant expression changes upon the drug treatment” value with Rh41 cells (sensitive cell Rh41) is given as 30%.

The term pIC50 denotes −log10 of the IC50, conventionally taken in molar units.
